Source: paper PMC6268492, “Synthesis and Antiangiogenic Activity of Novel Gambogic Acid Derivatives” (Molecules, 2012)
Like-named read-outs stand apart in the source and are kept apart here.

Experiments:
[1] = tested on: LO2; experiment: MTT assay, cytotoxicity; type: cell-based; conditions: Homo sapiens, L02, 24 h, read-out: IC50, inhibition of cell proliferation
Method: (§1) HepG2, HCT116, HeLa and LO2 cell lines were cultured in DMEM containing 10% fetal bovine serum (FBS), 100 IU/mL penicillin and 100 µg/mL streptomycin; A549 and K562 cell lines were cultured in RPMI 1640 medium containing 10% fetal bovine serum (FBS), 100 IU/mL penicillin and 100 µg/mL streptomycin; Human umbilical vein endothelial cells (HUVECs) were cultured on gelatin-coated culture flasks in M-199 medium with 20% fetal bovine serum (FBS), 2 ng/mL VEGF, 10 ng/mL basic FGF, 100 IU/mL penicillin, and 100 μg/mL streptomycin; all of them were obtained from the American Type Culture Collection (ATCC) and all cell lines were incubated in an atmosphere of 5% CO2 at 37 °C.
(§2) Cells were treated with various concentrations of compound in 96-well culture plates for 24 h in final volumes of 200 μL (5 × 10^3 cells/well). Then 20 μL of MTT solution (5 mg/mL) was added to each well, and cells were incubated for an additional 3 h. Then the medium was carefully removed, and precipitates were dissolved in 150 μL of DMSO, shaken mechanically for 30 min, and then absorbance values at a wavelength of 570 nm were taken on a spectrophotometer (Molecular Devices, Sunnyvale, CA, USA). Values were calculated using percentage of growth versus untreated control. The IC50 was defined as the concentration that caused 50% inhibition of cell proliferation, and was calculated by SAS statistical software.

[2] = tested on: HUVEC; experiment: MTT assay, cell proliferation; type: cell-based, Human; conditions: Homo sapiens, 24 h, read-out: IC50, inhibition of cell proliferation
Method: Inhibiting the proliferation of ECs is another important strategy for antiangiogenesis. […] As the exposure time of these derivatives was 24 h in the migration assay and 6 h in the tube formation assay, the effect of the incubation for 24 h in the presence of these compounds on HUVECs proliferation was then tested. Cell viability was assessed by the MTT method. We can see from Table 4 that these compounds had different antiproliferative activities.
as §1, §2

[3] = tested on: HeLa; experiment: MTT assay, cell proliferation; type: cell-based; conditions: Homo sapiens, 24 h, read-out: IC50, inhibition of cell proliferation
Method: as §1, §2

[4] = tested on: HCT116; experiment: MTT assay, cell proliferation; type: cell-based; conditions: Homo sapiens, HCT-116, 24 h, read-out: IC50, inhibition of cell proliferation
Method: as §1, §2

[5] = tested on: A549; experiment: MTT assay, cell proliferation; type: cell-based; conditions: Homo sapiens, 24 h, read-out: IC50, inhibition of cell proliferation
Method: as §1, §2

[6] = tested on: HepG2; experiment: MTT assay, cell proliferation; type: cell-based; conditions: Homo sapiens, 24 h, read-out: IC50, inhibition of cell proliferation
Method: as §1, §2

[7] = tested on: K562; experiment: MTT assay, cell proliferation; type: cell-based; conditions: Homo sapiens, 24 h, read-out: IC50, inhibition of cell proliferation
Method: as §1, §2

[8] = tested on: transgenic fli-1: enhanced GFP zebrafish embryos; experiment: Zebrafish embryo assay: antiangiogenic effects; type: in vivo, zebrafish (Danio rerio); conditions: for inhibition in vivo at 1 µM / antiangiogenic rates: 1 μM
Method: As stated previously, zebrafish is regarded as a powerful tool in the study of human diseases. […] In this study, all GA derivatives were incubated with the transgenic friend leukemia integration-1 (fli-1): enhanced GFP zebrafish embryos which carried a fli-1 promoter which can drive the expression of GFP in the whole endothelium.
Figure 1 Effects on neovascularization in zebrafish embryos. The transgenic fli-1: enhanced GFP zebrafish embryos in embryo water (0.2 g/L of instant ocean salt in distilled water) incubated with 1 μM of compounds at 6 h postfertilization (hpf) for 24 h. Zebrafish embryos were imaged (Imager.Z1, magnification: left, 40×; right, 100×).
Using transgenic fli-1: enhanced GFP zebrafish embryos, we investigated the effects of all compounds on angiogenesis. […] At about 6 h post fertilization (hpf), the embryos were sorted in the 6-well plate (six embryos/well), removing dead and unhealthy embryos. Then the embryos were treated with the indicated concentrations of compounds which were added into embryo water. After incubation for 24 or 48 h, the embryos were anesthetized using 0.05% 2-phenoxyethanol in embryo water, quantified and photographed.

[9] = Danio rerio, zebrafish embryos, vs vehicle (0.05% DMSO), read-out: Anti-angiogenic phenotype

Structure (SMILES) | IC50 [1] [µM] | IC50 [2] [µM] | IC50 [3] [µM] | IC50 [4] [µM] | IC50 [5] [µM] | IC50 [6] [µM] | IC50 [7] [µM] | antiangiogenic activities ([8]; 2.5 μM, not enhanced greatly at 10 μM) | inhibition in vivo at 1 µM ([8]; Danio rerio, zebrafish embryos, read-out: antiangiogenic rates) [%] | inhibition in vivo at 1 µM [8, 9] [%] | inhibition in vivo at 2.5 µM ([8]; Danio rerio, 2.5 μM, zebrafish embryos, vs vehicle (0.05% DMSO), read-out: Anti-angiogenic phenotype) [%] | inhibition in vivo at 10 µM [8, 9] [%] | antiangiogenic rates ([8]; zebrafish embryos)
CC(C)=CCCC1(C)C=Cc2c(O)c3c(c(CC=C(C)C)c2O1)OC12C(=CC4CC1C(C)(C)OC2(C/C=C(/C)C(=O)Oc1ccc(NC(=O)CCCl)cc1)C4=O)C3=O (stereo not shown) [Compound 9, 3-Chloro-N-(4-phenylgambogate)propanamide] | 1 ± 0.1 | 4.27 ± 0.25 | 3.42 ± 0.19 | 2.05 ± 0.41 | 3.75 ± 0.35 | 5.16 ± 0.55 | 1.14 ± 0.03 | moderate | < 25 | < 25 | 25 to 50 | 25 to 50 | –
CC(C)=CCCC1(C)C=Cc2c(O)c3c(c(CC=C(C)C)c2O1)OC12C(=CC4CC1C(C)(C)OC2(C/C=C(/C)C(=O)Oc1ccc(C(=O)CBr)cc1)C4=O)C3=O (stereo not shown) [Compound 16, 4-(2-Bromoacetyl)phenyl gambogate] | 5.25 ± 0.51 | 11.9 ± 1.36 | 8.98 ± 0.58 | 5.08 ± 0.77 | > 80 | 4.51 ± 0.29 | 3.46 ± 0.34 | – | – | – | – | 25 to 50 | inactive
CC(C)=CCCC1(C)C=Cc2c(O)c3c(c(CC=C(C)C)c2O1)OC12C(=CC4CC1C(C)(C)OC2(C/C=C(/C)C(=O)Oc1ccc(C=O)cc1)C4=O)C3=O (stereo not shown) [Compound 20, 4-Formylphenyl gambogate] | 9.92 ± 0.52 | 7.7 ± 0.32 | 24.3 ± 2.13 | 7.9 ± 0.14 | 31.2 ± 2.29 | 5.86 ± 0.4 | 4.52 ± 0.43 | – | – | – | – | 25 to 50 | inactive
COc1ccc(OC(=O)/C(C)=C\CC23OC(C)(C)C4CC(C=C5C(=O)c6c(O)c7c(c(CC=C(C)C)c6OC542)OC(C)(CCC=C(C)C)C=C7)C3=O)cc1Br (stereo not shown) [Compound 22, 2-Bromo-4-methoxyphenyl gambogate] | > 80 | 51.3 ± 1.1 | > 80 | 36.9 ± 0.64 | > 80 | 63.2 ± 3.88 | 36.9 ± 0.56 | – | – | – | – | 25 to 50 | inactive
CC(C)=CCCC1(C)C=Cc2c(O)c3c(c(CC=C(C)C)c2O1)OC12C(=CC4CC1C(C)(C)OC2(C/C=C(/C)C(=O)Oc1ccc(Cl)cc1C=O)C4=O)C3=O (stereo not shown) [Compound 23, 4-Chloro-2-formylphenyl gambogate] | 31.7 ± 1.94 | 32 ± 1.76 | 61.6 ± 5.86 | 15.9 ± 1.46 | 73.5 ± 3.4 | 19.9 ± 2.89 | 15.5 ± 1.35 | – | – | – | – | 25 to 50 | inactive
CC(C)=CCCC1(C)C=Cc2c(O)c3c(c(CC=C(C)C)c2O1)OC12C(=CC4CC1C(C)(C)OC2(C/C=C(/C)C(=O)Oc1ccc(C(C)(C)CC(C)(C)C)cc1)C4=O)C3=O (stereo not shown) [Compound 25, 4-(2,4,4-Trimethylpentan-2-yl)phenyl gambogate] | > 80 | > 80 | > 80 | > 80 | > 80 | > 80 | > 80 | – | – | – | – | – | –
